Literature values in patent US20200129499A1, “COMBINATION OF TASQUINIMOD OR A PHARMACEUTICALLY ACCEPTABLE SALT THEREOF AND A PD-1 AND/OR PD-L1 INHIBITOR, FOR USE AS A MEDICAMENT” (ACTIVE BIOTECH AB, priority 2015, published 2020).

Tested on: metastatic bladder cancer
Settings: phase 1a study, cited from earlier work

atezolizumab: anti-PD-L1 human IgG1 antibody (Roche)
people alive at 1 year (people with the highest levels of PD-L1 expression): 57%
Complete responses (CRs) (metastatic bladder cancer): 20%
